{"source": "patent US20190314382A1", "about": "“COMPOUNDS AND PHARMACEUTICAL COMPOSITIONS THEREOF FOR THE TREATMENT OF INFLAMMATORY DISEASES” (Galapagos NV, priority 2016, published 2019)", "assay_type_in_all_cases": "in vivo, human", "conditions_in_all_cases": "observed case", "key": {"GM-CSF": {"tested_on": "GM-CSF", "assay": "Biomarker study in RA subjects: serum GM-CSF, Luminex 18-Plex", "experimental": "(§1) Double-blind, placebo-controlled add on study in subjects with moderately to severely active RA who have an inadequate response to MTX (oral or parenteral).\n(§2) 595 subjects randomized to one of 6 dose regimens of Compound 1 (dosed as a [Compound 1:HCl:3H2O]) (3 dose levels administered either once or twice daily) or placebo on top of each subject's stable dose of MTX.\n(§3) Compound 1 (dosed as a [Compound 1:HCl:3H2O]) is dosed for twelve weeks once daily (q.d.) (50 mg, 100 mg or 200 mg) or twice daily (b.i.d.) (25 mg, 50 mg or 100 mg); or placebo.\n(§4) 18 parameters from human serum samples (GM-CSF, IFNγ, IL-1β, IL-2, IL-4, IL-5, IL-6, IL-7, IL-8, IL-10, IL-12 (p70), IL-13, IL-17A, IL-21, IL-23, MIP-1α, MIP-1β and TNF-α) are analyzed on a Luminex Plateform (BioPlex® L200) using a Luminex 18-Plex Kit (Millipore: HSTCMAG-28SK).\n(§5) Coupled beads react with the sample containing the biomarker of interest. […] Phycoerythrin (PE) serves as a fluorescent indicator.\n(§6) The concentration of bead bound analyte is proportional to the MFI (Median Fluorescent Intensity) and back-calculated from interpolation with the calibration curve fitted with a 4 or 5 parameters logistic (4PL or 5PL) regression model selected during method pre-validation.\n(§7) Treatment effect was assessed using an ANCOVA model on the changes from baseline, with factors: treatment, baseline value of the PD marker, geographical region and previous use of biologics."}, "IL-1β": {"tested_on": "IL-1β", "assay": "Biomarker study in RA subjects: serum IL-1β, Luminex 18-Plex", "experimental": "as §1, §2, §3, §4, §5, §6, §7"}, "IL-7": {"tested_on": "IL-7", "assay": "Biomarker study in RA subjects: serum IL-7, Luminex 18-Plex", "experimental": "as §1, §2, §3, §4, §5, §6, §7"}, "IL-13": {"tested_on": "IL-13", "assay": "Biomarker study in RA subjects: serum IL-13, Luminex 18-Plex", "experimental": "as §1, §2, §3, §4, §5, §6, §7"}, "IL-23": {"tested_on": "IL-23", "assay": "Biomarker study in RA subjects: serum IL-23, Luminex 18-Plex", "experimental": "as §1, §2, §3, §4, §5, §6, §7"}, "[1]": {"conditions": "50 mg bid, Week 4, N = 73, RA subjects on MTX"}, "[2]": {"conditions": "50 mg bid, Week 12, N = 73, RA subjects on MTX"}, "[3]": {"conditions": "100 mg bid, Week 4, N = 79, RA subjects on MTX"}, "[4]": {"conditions": "100 mg bid, Week 12, N = 79, RA subjects on MTX"}, "[5]": {"conditions": "100 mg qd, Week 4, N = 68, RA subjects on MTX"}, "[6]": {"conditions": "100 mg qd, Week 12, N = 68, RA subjects on MTX"}, "[7]": {"conditions": "200 mg qd, Week 4, N = 75, RA subjects on MTX"}, "[8]": {"conditions": "200 mg qd, Week 12, N = 75, RA subjects on MTX"}}, "data": [{"smiles": "O=C(Nc1nc2cccc(-c3ccc(CN4CCS(=O)(=O)CC4)cc3)n2n1)C1CC1", "note": "[Compound 1, cyclopropanecarboxylic acid {5-[4-(1,1-dioxo-thiomorpholin-4-ylmethyl)-phenyl]-[1,2,4]triazolo[1,5-a]pyridin-2yl}-amide]", "values": [{"measurement": "GM-CSF Mean change from baseline at Week 4", "setting": "GM-CSF; [1]", "result": -5.4, "unit": "pg/mL"}, {"measurement": "GM-CSF Mean change from baseline at Week 12", "setting": "GM-CSF; [2]", "result": -14.4, "unit": "pg/mL"}, {"measurement": "GM-CSF Mean change from baseline at Week 4", "setting": "GM-CSF; [3]", "result": -12.4, "unit": "pg/mL"}, {"measurement": "GM-CSF Mean change from baseline at Week 12", "setting": "GM-CSF; [4]", "result": -21.1, "unit": "pg/mL"}, {"measurement": "GM-CSF Mean change from baseline at Week 4", "setting": "GM-CSF; [5]", "result": -9.3, "unit": "pg/mL"}, {"measurement": "GM-CSF Mean change from baseline at Week 12", "setting": "GM-CSF; [6]", "result": -19.5, "unit": "pg/mL"}, {"measurement": "GM-CSF Mean change from baseline at Week 4", "setting": "GM-CSF; [7]", "result": -8.4, "unit": "pg/mL"}, {"measurement": "GM-CSF Mean change from baseline at Week 12", "setting": "GM-CSF; [8]", "result": -15.0, "unit": "pg/mL"}, {"measurement": "IL-1βb Mean change from baseline at Week 4", "setting": "IL-1β; [1]", "result": 1.4, "unit": "pg/mL"}, {"measurement": "IL-1βb Mean change from baseline at Week 12", "setting": "IL-1β; [2]", "result": -0.9, "unit": "pg/mL"}, {"measurement": "IL-1βb Mean change from baseline at Week 4", "setting": "IL-1β; [3]", "result": -1.0, "unit": "pg/mL"}, {"measurement": "IL-1βb Mean change from baseline at Week 12", "setting": "IL-1β; [4]", "result": -1.8, "unit": "pg/mL"}, {"measurement": "IL-1βb Mean change from baseline at Week 4", "setting": "IL-1β; [5]", "result": -0.6, "unit": "pg/mL"}, {"measurement": "IL-1βb Mean change from baseline at Week 12", "setting": "IL-1β; [6]", "result": -1.2, "unit": "pg/mL"}, {"measurement": "IL-1βb Mean change from baseline at Week 4", "setting": "IL-1β; [7]", "result": -0.6, "unit": "pg/mL"}, {"measurement": "IL-1βb Mean change from baseline at Week 12", "setting": "IL-1β; [8]", "result": -1.6, "unit": "pg/mL"}, {"measurement": "IL-7 Mean change from baseline at Week 4", "setting": "IL-7; [1]", "result": -1.8, "unit": "pg/mL"}, {"measurement": "IL-7 Mean change from baseline at Week 12", "setting": "IL-7; [2]", "result": -2.6, "unit": "pg/mL"}, {"measurement": "IL-7 Mean change from baseline at Week 4", "setting": "IL-7; [3]", "result": -2.7, "unit": "pg/mL"}, {"measurement": "IL-7 Mean change from baseline at Week 12", "setting": "IL-7; [4]", "result": -3.0, "unit": "pg/mL"}, {"measurement": "IL-7 Mean change from baseline at Week 4", "setting": "IL-7; [5]", "result": -0.4, "unit": "pg/mL"}, {"measurement": "IL-7 Mean change from baseline at Week 12", "setting": "IL-7; [6]", "result": -1.2, "unit": "pg/mL"}, {"measurement": "IL-7 Mean change from baseline at Week 4", "setting": "IL-7; [7]", "result": -2.5, "unit": "pg/mL"}, {"measurement": "IL-7 Mean change from baseline at Week 12", "setting": "IL-7; [8]", "result": -3.3, "unit": "pg/mL"}, {"measurement": "IL-13 Mean change from baseline at Week 4", "setting": "IL-13; [1]", "result": -0.6, "unit": "pg/mL"}, {"measurement": "IL-13 Mean change from baseline at Week 12", "setting": "IL-13; [2]", "result": -1.1, "unit": "pg/mL"}, {"measurement": "IL-13 Mean change from baseline at Week 4", "setting": "IL-13; [3]", "result": -1.5, "unit": "pg/mL"}, {"measurement": "IL-13 Mean change from baseline at Week 12", "setting": "IL-13; [4]", "result": -2.9, "unit": "pg/mL"}, {"measurement": "IL-13 Mean change from baseline at Week 4", "setting": "IL-13; [5]", "result": -0.6, "unit": "pg/mL"}, {"measurement": "IL-13 Mean change from baseline at Week 12", "setting": "IL-13; [6]", "result": -1.5, "unit": "pg/mL"}, {"measurement": "IL-13 Mean change from baseline at Week 4", "setting": "IL-13; [7]", "result": -0.9, "unit": "pg/mL"}, {"measurement": "IL-13 Mean change from baseline at Week 12", "setting": "IL-13; [8]", "result": -2.2, "unit": "pg/mL"}, {"measurement": "IL-23 Mean change from baseline at Week 4", "setting": "IL-23; [1]", "result": -772.1, "unit": "pg/mL"}, {"measurement": "IL-23 Mean change from baseline at Week 12", "setting": "IL-23; [2]", "result": -888.7, "unit": "pg/mL"}, {"measurement": "IL-23 Mean change from baseline at Week 4", "setting": "IL-23; [3]", "result": -273.6, "unit": "pg/mL"}, {"measurement": "IL-23 Mean change from baseline at Week 12", "setting": "IL-23; [4]", "result": -831.6, "unit": "pg/mL"}, {"measurement": "IL-23 Mean change from baseline at Week 4", "setting": "IL-23; [5]", "result": 38.3, "unit": "pg/mL"}, {"measurement": "IL-23 Mean change from baseline at Week 12", "setting": "IL-23; [6]", "result": -337.9, "unit": "pg/mL"}, {"measurement": "IL-23 Mean change from baseline at Week 4", "setting": "IL-23; [7]", "result": -435.8, "unit": "pg/mL"}, {"measurement": "IL-23 Mean change from baseline at Week 12", "setting": "IL-23; [8]", "result": -949.7, "unit": "pg/mL"}]}]}
